Converted amounts (≈) assume the structure as drawn. Read-outs that look alike come from different tables or passages of the source.
Legend:
Format in all cases: cell-based
M. catarrhalis = assay: Broth microdilution MIC (NCCLS), M. catarrhalis; settings: Moraxella catarrhalis, read-out: MIC range
Experimental: (§1) Representative bis-quinazolines were tested for antibacterial activity using the […] microdilution method to determine their minimum inhibitory concentrations (MICs). All compounds were tested using standard methods in accordance with NCCLS guidelines (National Committee for Clinical Laboratory Standards. 2003. Methods for dilution antimicrobial susceptibility testing for bacteria that grow aerobically. Approved Standard M-7 A-6, NCCLS, Wayne, Pa.). The bacterial strains used in the susceptibility tests were obtained from the American Type Culture Collection (ATCC) and included resistant phenotypes such as oxacillin-resistant S. aureus (ORSA) and vancomycin-resistant enterococci (VRE). The minimum bactericidal concentrations (MBCs) were determined for selected organisms. The effect of protein binding on the antibacterial activity of representative bis-quinazolines were determined by conducting MIC tests in the presence of human serum.

[1] = tested on: S. aureus, E. faecalis, S. pyogenes and S. pneumoniae; assay: Broth microdilution MIC (NCCLS), gram-positive strains
Method in brief: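 MICs by broth microdilution per NCCLS M-7 A-6 against ATCC strains, including ORSA and VRE; MBCs determined for selected organisms. Serum effect assessed by repeating MIC tests with human serum present.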

[2] = tested on: efflux mutants of E. coli; assay: Broth microdilution MIC (NCCLS), E. coli efflux mutants; settings: Escherichia coli, read-out: MICs
Experimental: as §1

H. influenzae = assay: Broth microdilution MIC (NCCLS), H. influenzae; settings: Haemophilus influenzae; some strains of H. influenzae
Experimental: as §1

[3] = tested on: efflux mutants of P. aeruginosa; assay: Broth microdilution MIC (NCCLS), P. aeruginosa efflux mutants; settings: Pseudomonas aeruginosa, read-out: MICs
Experimental: as §1

[4] = range against some strains of S. aureus, E. faecalis, S. pyogenes and S. pneumoniae, read-out: MIC

| SMILES | MIC (M. catarrhalis; some strains of M. catarrhalis) | MIC [1, 4] | MIC [2] | MIC (H. influenzae) | MIC [3] | MIC (M. catarrhalis) | MIC [1] |
| --- | --- | --- | --- | --- | --- | --- | --- |
| COc1cc2nc(Nc3nc(O)c4cc(OCCN5CCCCC5)ccc4n3)nc(C)c2cc1OC.O=C(O)C(F)(F)F [Example 145, 2-(6,7-Dimethoxy-4-methyl-quinazolin-2-ylamino)-6-(2-piperidin-1-yl-ethoxy)-quinazolin-4-ol trifluoroacetate salt] | 2 to 64 µg/mL | 0.06 to 16 µg/mL | 16 to 64 µg/mL | 16 to 32 µg/mL | 64 µg/mL | – | – |
| COc1cc2nc(Nc3nc(O)c4cc(OCCN(C)C)ccc4n3)nc(C)c2cc1OC.O=C(O)C(F)(F)F [Example 146, 2-(6,7-Dimethoxy-4-methyl-quinazolin-2-ylamino)-6-(2-dimethylamino-ethoxy)-quinazolin-4-ol trifluoroacetate salt] | 2 to 64 µg/mL | 0.06 to 16 µg/mL | 16 to 64 µg/mL | 16 to 32 µg/mL | 64 µg/mL | – | – |
| COc1cc2nc(Nc3nc(O)c4cc(OCCN5CCN(C)CC5)ccc4n3)nc(C)c2cc1OC.O=C(O)C(F)(F)F [Example 147, 2-(6,7-Dimethoxy-4-methyl-quinazolin-2-ylamino)-6-[2-(4-methyl-piperazin-1-yl)-ethoxy]-quinazolin-4-ol trifluoroacetate salt] | 2 to 64 µg/mL | 0.06 to 16 µg/mL | 16 to 64 µg/mL | 16 to 32 µg/mL | 64 µg/mL | – | – |
| COc1cc2nc(Nc3nc(O)c4cc(OCCN5CCCC5)ccc4n3)nc(C)c2cc1OC.O=C(O)C(F)(F)F [Example 148, 2-(6,7-Dimethoxy-4-methyl-quinazolin-2-ylamino)-6-(2-pyrrolidin-1-yl-ethoxy)-quinazolin-4-ol trifluoroacetate salt] | 2 to 64 µg/mL | 0.06 to 16 µg/mL | 16 to 64 µg/mL | 16 to 32 µg/mL | 64 µg/mL | – | – |
| CCN(CC)CCOc1ccc2nc(Nc3nc(C)c4cc(OC)c(OC)cc4n3)nc(O)c2c1.O=C(O)C(F)(F)F [Example 149, 6-(2-Diethylamino-ethoxy)-2-(6,7-dimethoxy-4-methyl-quinazolin-2-ylamino)-quinazolin-4-ol trifluoroacetate salt] | 2 to 64 µg/mL | 0.06 to 16 µg/mL | 16 to 64 µg/mL | 16 to 32 µg/mL | 64 µg/mL | – | – |
| COc1cc2nc(Nc3nc(O)c4cc(OCCCN5CCCC5)ccc4n3)nc(C)c2cc1OC.O=C(O)C(F)(F)F [Example 151, 2-(6,7-Dimethoxy-4-methyl-quinazolin-2-ylamino)-6-(3-pyrrolidin-1-yl-propoxy)-quinazolin-4-ol trifluoroacetate salt] | 2 to 64 µg/mL | 0.06 to 16 µg/mL | 16 to 64 µg/mL | 16 to 32 µg/mL | 64 µg/mL | – | – |
| COc1cc2nc(Nc3nc(O)c4cc(OCCN5CCC(O)C5)ccc4n3)nc(C)c2cc1OC.O=C(O)C(F)(F)F (centres unmarked) [Example 154, 2-(6,7-Dimethoxy-4-methyl-quinazolin-2-ylamino)-6-[2-(3-hydroxy-pyrrolidin-1-yl)-ethoxy]-quinazolin-4-ol trifluoroacetate salt] | 2 to 64 µg/mL | 0.06 to 16 µg/mL | 16 to 64 µg/mL | 16 to 32 µg/mL | 64 µg/mL | – | – |
| COc1cc2nc(Nc3nc(O)c4cc(OCCN5CCCC(O)C5)ccc4n3)nc(C)c2cc1OC.O=C(O)C(F)(F)F (centres unmarked) [Example 157, 2-(6,7-Dimethoxy-4-methyl-quinazolin-2-ylamino)-6-[2-(3-hydroxy-piperidin-1-yl)-ethoxy]-quinazolin-4-ol trifluoroacetate salt] | 2 to 64 µg/mL | 0.06 to 16 µg/mL | 16 to 64 µg/mL | 16 to 32 µg/mL | 64 µg/mL | – | – |
| COc1cc2nc(Nc3nc(O)c4cc(OCCN(CCO)CCO)ccc4n3)nc(C)c2cc1OC.O=C(O)C(F)(F)F [Example 158, 6-{2-[Bis-(2-hydroxy-ethyl)-amino]-ethoxy}-2-(6,7-dimethoxy-4-methyl-quinazolin-2-ylamino)-quinazolin-4-ol trifluoroacetate salt] | 2 to 64 µg/mL | 0.06 to 16 µg/mL | 16 to 64 µg/mL | 16 to 32 µg/mL | 64 µg/mL | – | – |
| CCN(CCO)CCOc1ccc2nc(Nc3nc(C)c4cc(OC)c(OC)cc4n3)nc(O)c2c1.O=C(O)C(F)(F)F [Example 159, 2-(6,7-Dimethoxy-4-methyl-quinazolin-2-ylamino)-6-{2-[ethyl-(2-hydroxy-ethyl)-amino]-ethoxy}-quinazolin-4-ol trifluoroacetate salt] | 2 to 64 µg/mL | 0.06 to 16 µg/mL | 16 to 64 µg/mL | 16 to 32 µg/mL | 64 µg/mL | – | – |
| COc1cc(OC)c2nc(Nc3nc(O)c4cc(OCCN5CCC(O)C5)ccc4n3)nc(C)c2c1.O=C(O)C(F)(F)F (centres unmarked) [Example 160, 2-(6,8-Dimethoxy-4-methyl-quinazolin-2-ylamino)-6-[2-(3-hydroxy-pyrrolidin-1-yl)-ethoxy]-quinazolin-4-ol trifluoroacetate salt] | 2 to 64 µg/mL | 0.06 to 16 µg/mL | 16 to 64 µg/mL | 16 to 32 µg/mL | 64 µg/mL | – | – |
| COc1cc2nc(Nc3nc(O)c4cc(OCCNCCO)ccc4n3)nc(C)c2cc1OC.O=C(O)C(F)(F)F [Example 161, 2-(6,7-Dimethoxy-4-methyl-quinazolin-2-ylamino)-6-[2-(2-hydroxy-ethylamino)-ethoxy]-quinazolin-4-ol trifluoroacetate salt] | 2 to 64 µg/mL | 0.06 to 16 µg/mL | 16 to 64 µg/mL | 16 to 32 µg/mL | 64 µg/mL | – | – |
| COc1cc2nc(Nc3nc(O)c4cc(OCCN5CCC(N)C5)ccc4n3)nc(C)c2cc1OC (centres unmarked) [Example 163, 6-[2-(3-Amino-pyrrolidin-1-yl)-ethoxy]-2-(6,7-dimethoxy-4-methyl-quinazolin-2-ylamino)-quinazolin-4-ol] | – | – | 16 to 64 µg/mL (≈ 32.5 to 130 µM) | 16 to 32 µg/mL (≈ 32.5 to 65.1 µM) | 64 µg/mL (≈ 130 µM) | 2 to 64 µg/mL (≈ 4.07 to 130 µM) | 0.06 to 16 µg/mL (≈ 0.122 to 32.5 µM) |
| COc1cc2nc(Nc3nc(O)c4cc(OCCN5CCCC5CO)ccc4n3)nc(C)c2cc1OC.O=C(O)C(F)(F)F (centres unmarked) [Example 164, 2-(6,7-Dimethoxy-4-methyl-quinazolin-2-ylamino)-6-[2-(2-hydroxymethyl-pyrrolidin-1-yl)-ethoxy]-quinazolin-4-ol trifluoroacetate salt] | 2 to 64 µg/mL | 0.06 to 16 µg/mL | 16 to 64 µg/mL | 16 to 32 µg/mL | 64 µg/mL | – | – |
| COc1cc2nc(Nc3nc(O)c4cc(OCCNC(CO)CO)ccc4n3)nc(C)c2cc1OC.O=C(O)C(F)(F)F [Example 165, 2-{2[-2-(6,7-Dimethoxy-4-methyl-quinazolin-2-ylamino)-4-hydroxy-quinazolin-6-yloxy]-ethylamino}-propane-1,3-diol trifluoroacetate salt] | 2 to 64 µg/mL | 0.06 to 16 µg/mL | 16 to 64 µg/mL | 16 to 32 µg/mL | 64 µg/mL | – | – |
| COc1cc(OC)c2nc(Nc3nc(O)c4cc(OCCN5CCCC5)ccc4n3)nc(C)c2c1.O=C(O)C(F)(F)F [Example 166, 2-(6,8-Dimethoxy-4-methyl-quinazolin-2-ylamino)-6-(2-pyrrolidin-1-yl-ethoxy)-quinazolin-4-ol trifluoroacetate salt] | 2 to 64 µg/mL | 0.06 to 16 µg/mL | 16 to 64 µg/mL | 16 to 32 µg/mL | 64 µg/mL | – | – |
| COc1cc2nc(Nc3nc(O)c4cc(OCCNC(C)CO)ccc4n3)nc(C)c2cc1OC.O=C(O)C(F)(F)F (centres unmarked) [Example 169, 2-(6,7-Dimethoxy-4-methyl-quinazolin-2-ylamino)-6-[2-(2-hydroxy-1-methyl-ethylamino)-ethoxy]-quinazolin-4-ol trifluoroacetate salt] | 2 to 64 µg/mL | 0.06 to 16 µg/mL | 16 to 64 µg/mL | 16 to 32 µg/mL | 64 µg/mL | – | – |
| COc1cc2nc(Nc3nc(O)c4cc(OCCN5CCOC(CO)C5)ccc4n3)nc(C)c2cc1OC.O=C(O)C(F)(F)F (centres unmarked) [Example 170, 2-(6,7-Dimethoxy-4-methyl-quinazolin-2-ylamino)-6-[2-(2-hydroxymethyl-morpholin-4-yl)-ethoxy]-quinazolin-4-ol trifluoroacetate salt] | 2 to 64 µg/mL | 0.06 to 16 µg/mL | 16 to 64 µg/mL | 16 to 32 µg/mL | 64 µg/mL | – | – |
| CCN(CCOc1ccc2nc(Nc3nc(C)c4cc(OC)c(OC)cc4n3)nc(O)c2c1)CCN(C)C.O=C(O)C(F)(F)F [Example 171, 2-(6,7-Dimethoxy-4-methyl-quinazolin-2-ylamino)-6-{2[(2-dimethylamino-ethyl)-ethyl-amino]-ethoxy}-quinazolin-4-ol trifluoroacetate salt] | 2 to 64 µg/mL | 0.06 to 16 µg/mL | 16 to 64 µg/mL | 16 to 32 µg/mL | 64 µg/mL | – | – |
